Literature values as cited in US5032506A, “Color control system” (priority 1986, dated 1991).

Test system: diaphorase
Conditions: chromogen substrates of diaphorase; literature values (Gella et al. 1981); read-out: Km for the tetrazolium salts

| SMILES | Km [µM] |
| --- | --- |
| O=[N+]([O-])c1ccc(-[n+]2nc(-c3ccccc3)nn2-c2ccc(I)cc2)cc1 [INT] | 870 |
| COc1cc(-c2ccc(-n3nc(-c4ccccc4)n[n+]3-c3ccc([N+](=O)[O-])cc3)c(OC)c2)ccc1-n1nc(-c2ccccc2)n[n+]1-c1ccc([N+](=O)[O-])cc1 [NBT, nitro blue tetrazolium chloride] | 2000 |
